Test results as given in ChEMBL document CHEMBL5360651, “Progress on the Pharmacological Targeting of Janus Pseudokinases” (J Med Chem, 2023).
Values belong to the compound of their own block, whether it stands above or below them.

Legend:
[1] = target: T1, Non-receptor tyrosine-protein kinase TYK2 (Homo sapiens, UniProt P29597); format: cell-based, Sf9
[2] = Inhibition of JAK1 JH2 (unknown origin); set-up: species or system Homo sapiens
[3] = target: T1, Non-receptor tyrosine-protein kinase TYK2; test: Inhibition of human recombinant N-terminal His-tagged TYK2 (575 to 869 residues) expressed in baculovirus infected Sf9 cells at 1 uM incubated for 30 mins by scintillation method
[4] = target: T2, Inhibitor of nuclear factor kappa-B kinase subunit beta (Homo sapiens) (UniProt O14920); test: Inhibition of IKKbeta (unknown origin) at 1 uM relative to control
T2 sequence (whole entry): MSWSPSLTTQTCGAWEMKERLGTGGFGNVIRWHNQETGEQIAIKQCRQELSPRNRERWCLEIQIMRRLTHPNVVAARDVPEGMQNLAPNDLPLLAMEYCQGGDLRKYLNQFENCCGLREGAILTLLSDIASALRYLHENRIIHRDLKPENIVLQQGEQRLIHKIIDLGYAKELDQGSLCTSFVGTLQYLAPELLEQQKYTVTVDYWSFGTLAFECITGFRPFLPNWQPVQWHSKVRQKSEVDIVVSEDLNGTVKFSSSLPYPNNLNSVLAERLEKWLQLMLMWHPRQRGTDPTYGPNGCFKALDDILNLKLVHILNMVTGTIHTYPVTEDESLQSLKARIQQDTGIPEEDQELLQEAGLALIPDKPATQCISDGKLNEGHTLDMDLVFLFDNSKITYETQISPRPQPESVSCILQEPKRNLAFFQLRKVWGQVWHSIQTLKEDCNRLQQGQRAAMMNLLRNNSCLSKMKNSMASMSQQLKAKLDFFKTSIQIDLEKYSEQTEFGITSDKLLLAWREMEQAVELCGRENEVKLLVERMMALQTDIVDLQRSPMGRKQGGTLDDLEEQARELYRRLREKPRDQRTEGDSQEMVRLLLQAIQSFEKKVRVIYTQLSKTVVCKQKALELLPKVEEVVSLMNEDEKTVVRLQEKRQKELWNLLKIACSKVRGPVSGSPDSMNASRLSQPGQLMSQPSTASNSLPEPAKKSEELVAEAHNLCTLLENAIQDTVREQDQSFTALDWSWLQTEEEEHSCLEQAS

[5] = Inhibition of PDE4 (unknown origin) by HTRF assay; set-up: species or system Homo sapiens
[6] = target: T1, Non-receptor tyrosine-protein kinase TYK2; test: Inhibition of TYK2 JH2 in human KIT225 cells assessed as reduction of IFNalpha induced STAT1 phosphorylation by AlphaLISA assay; format: cell-based
[7] = target: T1, Non-receptor tyrosine-protein kinase TYK2; format: cell-based, Sf9; remark: listed apart in the source
[8] = target: T3, Tyrosine-protein kinase JAK2 (Homo sapiens, UniProt O60674)
T3 sequence (O60674 whole entry): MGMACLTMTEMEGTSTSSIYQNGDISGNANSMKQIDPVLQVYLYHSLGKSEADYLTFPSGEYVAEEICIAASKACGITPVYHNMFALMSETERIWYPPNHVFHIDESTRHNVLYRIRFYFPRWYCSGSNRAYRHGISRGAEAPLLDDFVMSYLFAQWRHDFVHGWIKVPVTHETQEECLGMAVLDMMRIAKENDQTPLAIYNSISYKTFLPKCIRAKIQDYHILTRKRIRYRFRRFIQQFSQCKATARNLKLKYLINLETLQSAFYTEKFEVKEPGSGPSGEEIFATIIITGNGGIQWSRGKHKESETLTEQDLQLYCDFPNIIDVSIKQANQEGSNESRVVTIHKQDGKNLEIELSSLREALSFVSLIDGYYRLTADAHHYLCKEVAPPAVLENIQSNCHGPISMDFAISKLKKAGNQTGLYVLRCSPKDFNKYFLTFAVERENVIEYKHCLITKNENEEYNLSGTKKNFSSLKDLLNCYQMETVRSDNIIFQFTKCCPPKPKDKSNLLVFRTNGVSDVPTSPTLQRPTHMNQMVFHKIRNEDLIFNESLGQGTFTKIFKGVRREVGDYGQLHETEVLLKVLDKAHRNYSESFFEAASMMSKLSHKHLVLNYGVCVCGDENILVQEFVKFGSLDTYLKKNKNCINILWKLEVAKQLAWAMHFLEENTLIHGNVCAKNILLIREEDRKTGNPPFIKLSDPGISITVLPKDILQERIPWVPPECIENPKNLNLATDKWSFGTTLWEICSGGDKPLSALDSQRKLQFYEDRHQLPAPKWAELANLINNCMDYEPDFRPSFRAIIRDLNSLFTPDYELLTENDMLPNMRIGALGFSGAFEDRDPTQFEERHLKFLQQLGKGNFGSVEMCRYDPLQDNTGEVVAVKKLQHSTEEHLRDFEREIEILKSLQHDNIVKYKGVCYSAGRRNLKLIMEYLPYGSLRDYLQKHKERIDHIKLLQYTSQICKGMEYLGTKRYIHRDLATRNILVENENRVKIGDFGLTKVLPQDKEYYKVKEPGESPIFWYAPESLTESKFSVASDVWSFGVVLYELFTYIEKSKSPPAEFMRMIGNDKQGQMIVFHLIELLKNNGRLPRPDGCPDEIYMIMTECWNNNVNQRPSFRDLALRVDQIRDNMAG

[9] = target: T1, Non-receptor tyrosine-protein kinase TYK2; test: Inhibition of TYK2 signalling pathway in human PBMC cells assessed as IFN alpha induced p-STAT1 level; format: cell-based
[10] = target: T1, Non-receptor tyrosine-protein kinase TYK2; test: Inhibition of TYK2 signalling pathway in human PBMC cells assessed as IFN alpha induced p-STAT3 level; format: cell-based
[11] = target: T4, Tyrosine-protein kinase JAK1 (Homo sapiens, UniProt P23458)
T4 sequence (P23458 whole entry): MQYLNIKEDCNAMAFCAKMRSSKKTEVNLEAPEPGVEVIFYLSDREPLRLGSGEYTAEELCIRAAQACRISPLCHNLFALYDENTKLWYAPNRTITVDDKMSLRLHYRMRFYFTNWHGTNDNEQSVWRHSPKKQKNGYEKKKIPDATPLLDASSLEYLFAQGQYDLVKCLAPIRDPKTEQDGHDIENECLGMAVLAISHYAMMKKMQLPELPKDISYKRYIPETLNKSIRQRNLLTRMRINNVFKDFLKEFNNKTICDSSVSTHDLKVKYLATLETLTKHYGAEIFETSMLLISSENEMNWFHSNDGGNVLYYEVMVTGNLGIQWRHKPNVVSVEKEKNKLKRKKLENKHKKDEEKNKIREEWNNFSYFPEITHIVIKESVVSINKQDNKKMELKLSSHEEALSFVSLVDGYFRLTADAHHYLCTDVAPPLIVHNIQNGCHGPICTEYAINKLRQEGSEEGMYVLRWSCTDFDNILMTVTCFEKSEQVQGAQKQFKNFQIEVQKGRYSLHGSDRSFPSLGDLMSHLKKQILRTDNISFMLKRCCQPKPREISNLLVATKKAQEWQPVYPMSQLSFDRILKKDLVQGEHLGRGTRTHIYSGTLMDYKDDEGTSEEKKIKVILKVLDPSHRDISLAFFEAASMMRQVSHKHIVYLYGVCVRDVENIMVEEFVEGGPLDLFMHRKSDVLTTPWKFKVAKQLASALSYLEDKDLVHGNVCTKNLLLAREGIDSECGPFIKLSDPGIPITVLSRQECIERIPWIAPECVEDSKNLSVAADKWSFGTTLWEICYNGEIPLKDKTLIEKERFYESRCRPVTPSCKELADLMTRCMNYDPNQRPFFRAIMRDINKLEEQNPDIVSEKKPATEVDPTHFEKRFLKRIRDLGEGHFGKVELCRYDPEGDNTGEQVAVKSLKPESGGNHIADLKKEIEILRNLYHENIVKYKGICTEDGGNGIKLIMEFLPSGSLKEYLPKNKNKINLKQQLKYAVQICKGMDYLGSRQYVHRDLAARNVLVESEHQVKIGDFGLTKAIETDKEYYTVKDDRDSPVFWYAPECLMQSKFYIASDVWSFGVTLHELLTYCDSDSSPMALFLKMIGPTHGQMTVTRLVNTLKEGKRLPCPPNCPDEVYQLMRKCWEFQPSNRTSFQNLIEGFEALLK

[12] = target: T4, Tyrosine-protein kinase JAK1; remark: listed apart in the source
[13] = Half life in human liver microsomes; format: ADME, Microsome
[14] = target: T5, Tyrosine-protein kinase JAK3 (Homo sapiens, UniProt P52333); test: Inhibition of JAK3 signaling pathway in human PBMC cells assessed as reduction of IL-2 induced STAT5 phosphorylation; format: cell-based
T5 sequence (P52333 whole entry): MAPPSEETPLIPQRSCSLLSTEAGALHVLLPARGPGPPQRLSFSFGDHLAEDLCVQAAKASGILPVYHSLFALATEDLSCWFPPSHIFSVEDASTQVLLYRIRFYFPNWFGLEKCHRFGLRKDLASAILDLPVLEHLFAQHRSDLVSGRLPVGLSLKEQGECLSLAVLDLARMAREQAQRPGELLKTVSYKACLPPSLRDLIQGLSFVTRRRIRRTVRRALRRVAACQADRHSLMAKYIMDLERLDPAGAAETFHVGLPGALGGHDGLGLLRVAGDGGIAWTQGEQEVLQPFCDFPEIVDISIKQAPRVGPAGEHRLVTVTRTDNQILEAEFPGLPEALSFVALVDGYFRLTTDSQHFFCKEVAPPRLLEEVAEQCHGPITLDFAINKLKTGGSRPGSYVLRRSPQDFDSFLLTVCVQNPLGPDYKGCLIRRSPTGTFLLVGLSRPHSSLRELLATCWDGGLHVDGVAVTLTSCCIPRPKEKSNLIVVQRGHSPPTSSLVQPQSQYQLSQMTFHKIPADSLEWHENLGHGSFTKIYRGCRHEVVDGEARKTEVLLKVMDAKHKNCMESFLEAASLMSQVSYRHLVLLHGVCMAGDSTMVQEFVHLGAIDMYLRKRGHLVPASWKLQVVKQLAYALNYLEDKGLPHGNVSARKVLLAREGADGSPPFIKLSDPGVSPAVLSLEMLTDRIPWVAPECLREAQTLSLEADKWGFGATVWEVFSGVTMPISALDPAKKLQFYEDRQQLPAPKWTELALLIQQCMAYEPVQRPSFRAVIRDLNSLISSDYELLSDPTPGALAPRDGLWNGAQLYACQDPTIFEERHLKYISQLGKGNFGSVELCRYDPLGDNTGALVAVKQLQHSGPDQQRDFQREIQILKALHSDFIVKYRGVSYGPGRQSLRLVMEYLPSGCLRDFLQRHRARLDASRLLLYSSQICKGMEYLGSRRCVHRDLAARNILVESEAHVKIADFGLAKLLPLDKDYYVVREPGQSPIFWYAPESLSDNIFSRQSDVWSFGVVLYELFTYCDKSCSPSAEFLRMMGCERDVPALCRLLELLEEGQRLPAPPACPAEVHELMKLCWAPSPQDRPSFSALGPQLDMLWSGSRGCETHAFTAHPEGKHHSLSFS

[15] = Solubility of compound at pH 6.5; format: physicochemical; details: buffer
[16] = target: Voltage-gated inwardly rectifying potassium channel KCNH2 (Homo sapiens, UniProt Q12809); test: Inhibition of hERG by fluorescence polarization method; format: toxicity
Chain of Voltage-gated inwardly rectifying potassium channel KCNH2 (Q12809 whole entry): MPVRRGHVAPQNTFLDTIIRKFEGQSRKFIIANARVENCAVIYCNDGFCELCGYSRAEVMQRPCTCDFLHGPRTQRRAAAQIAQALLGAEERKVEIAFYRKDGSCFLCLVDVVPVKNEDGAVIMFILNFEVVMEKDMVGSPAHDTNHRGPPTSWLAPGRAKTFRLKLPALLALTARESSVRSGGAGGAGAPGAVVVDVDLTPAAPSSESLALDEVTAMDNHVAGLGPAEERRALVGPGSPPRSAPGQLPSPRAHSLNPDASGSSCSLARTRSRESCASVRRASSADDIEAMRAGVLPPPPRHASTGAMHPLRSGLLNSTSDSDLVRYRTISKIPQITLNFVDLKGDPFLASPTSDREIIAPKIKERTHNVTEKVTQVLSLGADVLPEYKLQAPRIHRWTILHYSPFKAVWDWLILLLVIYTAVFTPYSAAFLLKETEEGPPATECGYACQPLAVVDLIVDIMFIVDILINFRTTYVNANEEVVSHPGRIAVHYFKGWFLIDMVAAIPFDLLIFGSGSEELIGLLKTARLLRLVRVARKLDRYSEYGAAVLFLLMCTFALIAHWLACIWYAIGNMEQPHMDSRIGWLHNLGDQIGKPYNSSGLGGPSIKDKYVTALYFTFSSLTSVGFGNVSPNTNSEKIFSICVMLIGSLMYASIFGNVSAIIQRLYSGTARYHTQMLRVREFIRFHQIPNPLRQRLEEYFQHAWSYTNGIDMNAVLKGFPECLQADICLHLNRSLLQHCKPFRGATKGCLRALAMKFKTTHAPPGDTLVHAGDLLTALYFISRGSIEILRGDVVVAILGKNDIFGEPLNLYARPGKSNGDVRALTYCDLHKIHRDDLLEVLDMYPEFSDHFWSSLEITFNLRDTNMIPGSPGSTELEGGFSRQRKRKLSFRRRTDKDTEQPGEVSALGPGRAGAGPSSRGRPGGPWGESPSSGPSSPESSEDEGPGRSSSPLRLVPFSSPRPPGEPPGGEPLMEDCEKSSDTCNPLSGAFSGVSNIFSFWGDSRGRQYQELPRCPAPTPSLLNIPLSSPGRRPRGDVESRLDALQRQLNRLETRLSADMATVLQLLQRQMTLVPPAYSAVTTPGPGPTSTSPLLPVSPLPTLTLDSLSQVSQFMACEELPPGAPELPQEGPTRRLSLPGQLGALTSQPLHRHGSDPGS

[17] = target: Tyrosine-protein kinase JAK2 (Homo sapiens, UniProt O60674, V617F); test: Binding affinity to JAK2 V617F mutant (unknown origin) assessed as dissociation constant
Chain of Tyrosine-protein kinase JAK2 (Homo sapiens, UniProt O60674, V617F) (O60674 whole entry V617F): as the sequence (O60674 whole entry) above, with V617F counted along it

[18] = target: T3, Tyrosine-protein kinase JAK2; test: Binding affinity to wild type JAK2 JH2 (unknown origin)

T1 sequence (P29597 whole entry): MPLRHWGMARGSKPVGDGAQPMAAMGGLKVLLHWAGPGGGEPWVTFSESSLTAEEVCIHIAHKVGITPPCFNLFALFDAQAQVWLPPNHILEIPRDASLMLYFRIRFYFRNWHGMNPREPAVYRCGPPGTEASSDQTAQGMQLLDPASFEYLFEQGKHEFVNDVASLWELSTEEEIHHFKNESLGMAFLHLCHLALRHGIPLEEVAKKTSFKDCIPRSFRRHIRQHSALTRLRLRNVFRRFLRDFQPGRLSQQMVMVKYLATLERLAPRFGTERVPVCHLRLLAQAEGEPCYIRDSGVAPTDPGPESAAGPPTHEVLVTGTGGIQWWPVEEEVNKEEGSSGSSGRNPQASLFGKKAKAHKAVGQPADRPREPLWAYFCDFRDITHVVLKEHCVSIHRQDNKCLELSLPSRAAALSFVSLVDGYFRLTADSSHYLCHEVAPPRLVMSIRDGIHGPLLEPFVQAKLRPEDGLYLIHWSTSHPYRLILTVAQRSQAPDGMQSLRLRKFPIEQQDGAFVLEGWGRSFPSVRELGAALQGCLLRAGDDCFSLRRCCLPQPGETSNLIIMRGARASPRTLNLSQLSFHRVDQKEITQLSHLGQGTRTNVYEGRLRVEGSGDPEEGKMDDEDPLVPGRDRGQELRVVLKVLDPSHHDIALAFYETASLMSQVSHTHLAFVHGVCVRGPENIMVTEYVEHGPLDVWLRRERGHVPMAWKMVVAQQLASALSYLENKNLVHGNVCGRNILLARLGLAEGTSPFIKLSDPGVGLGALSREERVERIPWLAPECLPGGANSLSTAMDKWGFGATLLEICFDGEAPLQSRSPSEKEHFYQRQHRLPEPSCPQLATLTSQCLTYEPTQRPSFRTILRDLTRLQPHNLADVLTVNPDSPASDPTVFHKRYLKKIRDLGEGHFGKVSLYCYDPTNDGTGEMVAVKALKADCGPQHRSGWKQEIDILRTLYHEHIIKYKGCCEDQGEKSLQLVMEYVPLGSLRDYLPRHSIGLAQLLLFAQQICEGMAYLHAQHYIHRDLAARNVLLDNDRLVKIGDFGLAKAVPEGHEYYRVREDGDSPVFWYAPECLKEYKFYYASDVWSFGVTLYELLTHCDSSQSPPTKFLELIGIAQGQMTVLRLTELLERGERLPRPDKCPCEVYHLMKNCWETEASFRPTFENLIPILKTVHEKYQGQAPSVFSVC

SMILES: CNC(=O)c1cnc(Nc2ccc(C#N)cn2)cc1Nc1cccc(-c2ncn(C)n2)c1OC
IC50 [1]: 0.3 nM

SMILES: CNc1nc2sc(-c3cccc([C@@H](C)NC(=O)c4ccccc4S(C)(=O)=O)c3)nc2c2c1ncn2C
inhibition [3]: 99%
inhibition [4]: > 96%

SMILES: NC(=O)c1ccccc1Nc1cc(Nc2ccc(F)cn2)ncc1C(N)=O
IC50 [5]: > 2000 nM
IC50 [6]: 37 nM

SMILES: CS(=O)(=O)N1CC[C@H](C#CC(=O)N2CCC[C@@H](c3ccc(Cl)c(Cl)c3)C2)C1
IC50 [9]: 32 nM
IC50 [10]: 46 nM

SMILES: c1nc2nc(Nc3ccc(N4CCOCC4)cc3)nc(NC3CCCCC3)c2[nH]1 [REVERSINE]
IC50 [11]: 350 nM
IC50 [12]: 350 nM

SMILES: O=C(Nc1c[nH]nc1-c1nc2cc(CN3CCOCC3)ccc2[nH]1)NC1CC1 [AT-9283]
IC50 [11]: 60 nM

SMILES: [2H]C([2H])([2H])NC(=O)c1nnc(NC(=O)C2CC2)cc1Nc1cccc(-c2ncn(C)n2)c1OC [DEUCRAVACITINIB]
half-life [13]: > 2 h
IC50 [14]: 3 nM
solubility [15]: < 1 µg/mL

SMILES: CNC(=O)c1nnc(NC(=O)C2CC2)c2[nH]c(-c3ccc(N)cc3OC)cc12
half-life [13]: > 2.32 h
IC50 [16]: > 30000 nM

SMILES: Nc1nc(CSc2nnc(NCC3CCCC3)s2)nc(Nc2ccc(F)cc2)n1
Kd [17]: 65000 nM
Kd [18]: 149000 nM

The remaining lines, values ahead:

IC50 [2]: 123 nM
SMILES: CC(C)CCN1c2nc(Nc3cc(F)c(O)c(F)c3)ncc2N(C)C(=O)C1(C)C

IC50 [7]: 50000 nM
IC50 [1]: 9700 nM
IC50 [8]: 14000 nM
SMILES: O=c1cc(-c2ccccc2)nc2c(-c3cccc([N+](=O)[O-])c3)c(C(F)(F)F)[nH]n12

IC50 [6]: 63 nM
SMILES: CNC(=O)c1cnc(Nc2ccc(F)cn2)cc1Nc1ccccc1S(C)(=O)=O

IC50 [2]: 658 nM
SMILES: CC(C)CCN1c2nc(Nc3cc(F)c(O)c(F)c3)ncc2N(C)C(=O)C1C (stereo not drawn)
